This note sets out measurements from patent US10870619B2 (CJ CHEILJEDANG CORPORATION, priority 2016, dated 2020).

For this series the following is noted: crystals obtained by the crystallization process of the respective example (pH adjustment, coagulant, pH readjustment, cooling rate vary). Here is the method:
As used herein, the term “bulk density” refers to the density measured based on the volume including voids generated between particles when powder is filled into a container. In particular, the density of powder which is measured after treating the powder by tapping a cylinder filled with the powder with a constant force so as to make the powder within the cylinder dense is called tapped bulk density (hereinafter, “BD”).

Each structure is given as a SMILES string. Read-outs that look alike come from different tables or passages of the source.

Regarding `CSCC[C@H](N)C(=O)O` [Comparative Example 1, L-methionine, reference compound], the “BD (tapped bulk density) of the obtained L-methionine crystals” value (“BD (tapped bulk density)” below) is 190 g/L. In addition, the “BD (tapped bulk density)” value (listed as Comp. Ex. 1) is on record as 190 g/L.

With `CSCC[C@H](N)C(=O)O` [Comparative Example 2, L-methionine, reference compound], the “BD (tapped bulk density)” value is reported as 520 g/L. The “BD (tapped bulk density)” value (listed as Comp. Ex. 2) is given as 520 g/L.

Regarding `CSCC[C@H](N)C(=O)O` [Comparative Example 3, L-methionine, reference compound], the “BD (tapped bulk density)” value was found to be 500 g/L. For the same compound, the “BD (tapped bulk density)” value (listed as Comp. Ex. 3) was determined as 500 g/L.

For the compound `CSCC[C@H](N)C(=O)O` [Comparative Example 4, L-methionine, reference compound], the “BD (tapped bulk density)” value is given as 500 g/L. Besides, the “BD (tapped bulk density)” value (listed as Comp. Ex. 4) was found to be 500 g/L.

Consider `CSCC[C@H](N)C(=O)O` [Comparative Example 5, L-methionine, reference compound], for which the “BD (tapped bulk density)” value is recorded as 490 g/L. In addition, the “BD (tapped bulk density)” value (listed as Comp. Ex. 5) is 490 g/L.

Regarding `CSCC[C@H](N)C(=O)O` [Comparative Example 6, L-methionine, reference compound], the “BD (tapped bulk density)” value came to 450 g/L. The “BD (tapped bulk density)” value (listed as Comp. Ex. 6) is on record as 450 g/L.

Take `CSCC[C@H](N)C(=O)O` [Comparative Example 7, L-methionine, reference compound]: the “BD (tapped bulk density)” value was 510 g/L. Moreover, the “BD (tapped bulk density)” value (listed as Comp. Ex. 7) is 510 g/L.

Regarding `CSCC[C@H](N)C(=O)O` [Comparative Example 8, L-methionine, reference compound], the “BD (tapped bulk density)” value is recorded as 450 g/L. In addition, the “BD (tapped bulk density)” value (listed as Comp. Ex. 8) amounted to 450 g/L.

Regarding `CSCC[C@H](N)C(=O)O` [Comparative Example 9, L-methionine, reference compound], the “BD (tapped bulk density)” value stood at 460 g/L. Besides, the “BD (tapped bulk density)” value (listed as Comp. Ex. 9) is 460 g/L.

For `CSCC[C@H](N)C(=O)O` [Comparative Example 10, L-methionine, reference compound], the “BD (tapped bulk density)” value came out at 630 g/L. The “BD (tapped bulk density)” value (listed as Comp. Ex. 10) was determined as 630 g/L.

Take `CSCC[C@H](N)C(=O)O` [Comparative Example 11, L-methionine, reference compound]: for the setting “listed as Comp. Ex. 11”, the “BD (tapped bulk density)” value amounted to 410 g/L.

As to `CSCC[C@H](N)C(=O)O` [Comparative Example 12, L-methionine, reference compound], the “BD (tapped bulk density)” value turned out to be 660 g/L. In addition, where the note is “listed as Comp. Ex. 12”, the “BD (tapped bulk density)” value turned out to be 660 g/L.

Take `CSCC[C@H](N)C(=O)O` [Comparative Example 13, L-methionine, reference compound]: the “BD (tapped bulk density)” value is 400 g/L. Also, where the note is “listed as Comp. Ex. 13”, the “BD (tapped bulk density)” value was found to be 400 g/L.

For `CSCC[C@H](N)C(=O)O` [Example 1, L-methionine], the “BD (tapped bulk density)” value is 370 g/L. Further, the “BD (tapped bulk density)” value (listed as Ex. 1) came to 370 g/L.

Consider `CSCC[C@H](N)C(=O)O` [Example 2, L-methionine], for which the “BD (tapped bulk density)” value came out at 350 g/L. Moreover, for the setting “listed as Ex. 2”, the “BD (tapped bulk density)” value worked out at 350 g/L.

In the case of `CSCC[C@H](N)C(=O)O` [Example 3, L-methionine], the “BD (tapped bulk density)” value came to 610 g/L. Moreover, under “listed as Ex. 3”, the “BD (tapped bulk density)” value is on record as 610 g/L.

For `CSCC[C@H](N)C(=O)O` [Example 4, L-methionine], the “BD (tapped bulk density)” value is on record as 590 g/L. For the same compound, under “listed as Ex. 4”, the “BD (tapped bulk density)” value worked out at 590 g/L.

For the compound `CSCC[C@H](N)C(=O)O` [Example 5, L-methionine], the “BD (tapped bulk density)” value is 590 g/L. Besides, the “BD (tapped bulk density)” value (listed as Ex. 5) worked out at 590 g/L.

Take `CSCC[C@H](N)C(=O)O` [Example 6, L-methionine]: the “BD (tapped bulk density)” value is recorded as 580 g/L. Moreover, the “BD (tapped bulk density)” value (listed as Ex. 6) came to 580 g/L.

As for `CSCC[C@H](N)C(=O)O` [Example 7, L-methionine], the “BD (tapped bulk density)” value is listed as 570 g/L. Moreover, where the note is “listed as Ex. 7”, the “BD (tapped bulk density)” value amounted to 570 g/L.

For the compound `CSCC[C@H](N)C(=O)O` [Example 8, L-methionine], the “BD (tapped bulk density)” value was 570 g/L. Under “listed as Ex. 8”, the “BD (tapped bulk density)” value stood at 570 g/L.

`CSCC[C@H](N)C(=O)O` [Example 9, L-methionine]: the “BD (tapped bulk density)” value is 560 g/L. For the same compound, the “BD (tapped bulk density)” value (listed as Ex. 9) was determined as 560 g/L.

Regarding `CSCC[C@H](N)C(=O)O` [Example 10, L-methionine], the “BD (tapped bulk density)” value was determined as 580 g/L. The “BD (tapped bulk density)” value (listed as Ex. 10) amounted to 580 g/L.

As for `CSCC[C@H](N)C(=O)O` [Example 11, L-methionine], the “BD (tapped bulk density)” value is 550 g/L. Besides, where the note is “listed as Ex. 11”, the “BD (tapped bulk density)” value amounted to 550 g/L.

As for `CSCC[C@H](N)C(=O)O` [Example 12, L-methionine], the “BD (tapped bulk density)” value came out at 560 g/L. For the setting “listed as Ex. 12”, the “BD (tapped bulk density)” value is on record as 560 g/L.

In the case of `CSCC[C@H](N)C(=O)O` [Example 13, L-methionine], the “BD (tapped bulk density)” value is 530 g/L. The “BD (tapped bulk density)” value (listed as Ex. 13) was determined as 530 g/L.

`CSCC[C@H](N)C(=O)O` [Example 14, L-methionine]: the “BD (tapped bulk density)” value was determined as 600 g/L. Further, the “BD (tapped bulk density)” value (listed as Ex. 14) was 600 g/L.

For the compound `CSCC[C@H](N)C(=O)O` [Example 15, L-methionine], the “BD (tapped bulk density)” value was 500 g/L. The “BD (tapped bulk density)” value (listed as Ex. 15) is listed as 500 g/L.

Take `CSCC[C@H](N)C(=O)O` [Example 16, L-methionine]: the “BD (tapped bulk density)” value is listed as 480 g/L. Besides, the “BD (tapped bulk density)” value (listed as Ex. 16) was 480 g/L.

For `CSCC[C@H](N)C(=O)O` [Example 17, L-methionine], the “BD (tapped bulk density)” value is listed as 690 g/L. The “BD (tapped bulk density)” value (listed as Ex. 17) amounted to 690 g/L.

Take `CSCC[C@H](N)C(=O)O` [Example 18, L-methionine]: the “BD (tapped bulk density)” value is 730 g/L. In addition, the “BD (tapped bulk density)” value (listed as Ex. 18) worked out at 730 g/L.

As to `CSCC[C@H](N)C(=O)O` [Example 19, L-methionine], the “BD (tapped bulk density)” value is recorded as 750 g/L. For the same compound, the “BD (tapped bulk density)” value (listed as Ex. 19) was found to be 750 g/L.
